The values that follow come from US10011607B2, “Ethynyl derivatives” (Hoffmann-La Roche Inc., priority 2015, dated 2018).

The target of the experiment is human mGlu4 receptor (Homo sapiens (Human), UniProt Q14833). In words: Ca2+ mobilization in vitro assay on recombinant human mGlu4 expressed in HEK293 cells (PAM). The format is cell-based. The settings on record: for Emax: HEK293, maximal response in % of maximal stimulatory effect of saturating L-AP4, read-out: Eff. (%); for EC50: HEK293 cells, human mGlu4, in presence of EC20 of L-AP4, read-out: EC50 (nM) mGlu4PAM. The text has this:
FIG. 1: Illustrates the experimental outline for mGlu4 PAM Ca^2+ mobilization screening assay and the determination of EC50 and % Emax values. […] A depression of the signal observed after addition of the EC20 concentration of L-AP4 was indicative of an inhibitory activity of the test compound.
Determination of EC50 Values Using a Ca2+ Mobilization In Vitro Assay on Recombinant Human mGlu4 Expressed in HEK293 Cells:
A monoclonal HEK-293 cell line stably transfected with a cDNA encoding for the human mGlu4 receptor was generated; for the work with mGlu4 Positive Allosteric Modulators (PAMs), a cell line with low receptor expression levels and low constitutive receptor activity was selected to allow the differentiation of agonistic versus PAM activity. Cells were cultured according to standard protocols (Freshney, 2000) in Dulbecco's Modified Eagle Medium with high glucose supplemented with 1 mM glutamine, 10% (vol/vol) heat-inactivated bovine calf serum, Penicillin/Streptomycin, 50 μg/ml hygromycin and 15 μg/ml blasticidin (all cell culture reagents and antibiotics from Invitrogen, Basel, Switzerland).
About 24 hrs before an experiment, 5×10^4 cells/well were seeded in poly-D-lysine coated, black/clear-bottomed 96-well plates. The cells were loaded with 2.5 μM Fluo-4AM in loading buffer (1×HBSS, 20 mM HEPES) for 1 hr at 37° C. and washed five times with loading buffer. The cells were transferred into a Functional Drug Screening System 7000 (Hamamatsu, Paris, France), and 11 half logarithmic serial dilutions of test compound at 37° C. were added and the cells were incubated for 10-30 min. with on-line recording of fluorescence. Following this pre-incubation step, the agonist (2S)-2-amino-4-phosphonobutanoic acid (L-AP4) was added to the cells at a concentration corresponding to EC20 with on-line recording of fluorescence; in order to account for day-to-day variations in the responsiveness of cells, the EC20 of L-AP4 was determined immediately ahead of each experiment by recording of a full dose-response curve of L-AP4.
Responses were measured as peak increase in fluorescence minus basal (i.e. fluorescence without addition of L-AP4), normalized to the maximal stimulatory effect obtained with saturating concentrations of L-AP4. Graphs were plotted with the % maximal stimulatory using XLfit, a curve fitting program that iteratively plots the data using Levenburg Marquardt algorithm. The single site competition analysis equation used was y=A+((B−A)/(1+((x/C)D))), where y is the % maximal stimulatory effect, A is the minimum y, B is the maximum y, C is the EC50, x is the log 10 of the concentration of the competing compound and D is the slope of the curve (the Hill Coefficient). From these curves the EC50 (drug concentration at which 50% of the maximal receptor activation was achieved), the Hill coefficient as well as the maximal response in % of the maximal stimulatory effect obtained with saturating concentrations of L-AP4 were calculated (see FIG. 1).
On the technique in general: Calcium assays in cells follow changes in intracellular calcium, usually with a dye or a luminescent sensor.

human mGlu4 receptor, sequence (Q14833 33-912): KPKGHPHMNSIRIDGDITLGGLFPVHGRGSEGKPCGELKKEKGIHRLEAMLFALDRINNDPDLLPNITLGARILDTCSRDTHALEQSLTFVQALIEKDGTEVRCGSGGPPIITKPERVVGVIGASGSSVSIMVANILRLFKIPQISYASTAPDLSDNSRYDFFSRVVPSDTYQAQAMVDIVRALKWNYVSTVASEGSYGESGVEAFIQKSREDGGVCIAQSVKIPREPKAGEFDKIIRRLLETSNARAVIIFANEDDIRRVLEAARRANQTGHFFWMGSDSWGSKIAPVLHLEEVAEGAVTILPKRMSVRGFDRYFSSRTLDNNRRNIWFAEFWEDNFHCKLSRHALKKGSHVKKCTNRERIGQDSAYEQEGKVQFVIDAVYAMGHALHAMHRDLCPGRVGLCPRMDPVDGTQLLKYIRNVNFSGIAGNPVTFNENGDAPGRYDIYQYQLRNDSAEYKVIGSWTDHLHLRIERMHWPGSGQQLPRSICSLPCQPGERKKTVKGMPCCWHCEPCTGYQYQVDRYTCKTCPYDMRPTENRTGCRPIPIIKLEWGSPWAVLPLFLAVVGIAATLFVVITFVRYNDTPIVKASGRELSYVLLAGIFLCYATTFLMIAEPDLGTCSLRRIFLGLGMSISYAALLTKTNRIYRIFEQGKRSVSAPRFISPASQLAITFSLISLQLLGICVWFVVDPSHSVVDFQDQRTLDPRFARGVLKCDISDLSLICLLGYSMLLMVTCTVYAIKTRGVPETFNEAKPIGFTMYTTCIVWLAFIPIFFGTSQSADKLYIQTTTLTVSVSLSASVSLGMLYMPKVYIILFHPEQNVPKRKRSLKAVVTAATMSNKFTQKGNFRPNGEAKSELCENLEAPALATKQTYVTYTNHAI

As usually defined, the EC50 is the concentration at which the effect is half-maximal. `Cc1cncc(N2CCN3C(=O)N(c4c(F)cc(C#Cc5ccccc5)cc4F)C(=O)CC3(C)C2=O)n1` (racemic) [Example 34, (9aRS)-7-[2,6-difluoro-4-(2-phenylethynyl)phenyl]-9a-methyl-2-(6-methylpyrazin-2-yl)-4,9-dihydro-3H-pyrazino[1,2-c]pyrimidine-1,6,8-trione]: the Emax came out at 114% and the EC50 worked out at 148 nM.

For `CC12CC(=O)N(c3c(F)cc(C#Cc4ccccc4)cc3F)C(=O)N1CCN(c1cccnn1)C2=O` (racemic) [Example 46, (9aRS)-7-[2,6-difluoro-4-(2-phenylethynyl)phenyl]-9a-methyl-2-pyridazin-3-yl-4,9-dihydro-3H-pyrazino[1,2-c]pyrimidine-1,6,8-trione], the Emax is 106% and the EC50 was determined as 132 nM.

Regarding `Cc1ccc(N2CCN3C(=O)N(c4c(F)cc(C#Cc5ccccc5)cc4F)C(=O)CC3(C)C2=O)nn1` (racemic) [Example 48, (9aRS)-7-[2,6-difluoro-4-(2-phenylethynyl)phenyl]-9a-methyl-2-(6-methylpyridazin-3-yl)-4,9-dihydro-3H-pyrazino[1,2-c]pyrimidine-1,6,8-trione], the Emax is 120% and the EC50 is 198 nM.

Consider `Cn1ncc(N2CCN3C(=O)N(c4c(F)cc(C#Cc5ccccc5)cc4F)C(=O)CC3(C)C2=O)cc1=O` (racemic) [Example 51, (9aRS)-7-[2,6-difluoro-4-(2-phenylethynyl)phenyl]-9a-methyl-2-(1-methyl-6-oxo-pyridazin-4-yl)-4,9-dihydro-3H-pyrazino[1,2-c]pyrimidine-1,6,8-trione], for which the Emax came to 120% and the EC50 was 191 nM.

With `CC12CC(=O)N(c3c(F)cc(C#Cc4ccccc4)cc3F)C(=O)N1CCN(c1nccs1)C2=O` (racemic) [Example 52, (9aRS)-7-[2,6-difluoro-4-(2-phenylethynyl)phenyl]-9a-methyl-2-thiazol-2-yl-4,9-dihydro-3H-pyrazino[1,2-c]pyrimidine-1,6,8-trione], the Emax is 97% and the half-maximal effective concentration (EC50) is 113 nM.

`Cc1cnc(N2CCN3C(=O)N(c4c(F)cc(C#Cc5ccccc5)cc4F)C(=O)CC3(C)C2=O)s1` (racemic) [Example 53, (9aRS)-7-[2,6-difluoro-4-(2-phenylethynyl)phenyl]-9a-methyl-2-(5-methylthiazol-2-yl)-4,9-dihydro-3H-pyrazino[1,2-c]pyrimidine-1,6,8-trione]: the Emax is 100% and the concentration for a half-maximal effect (EC50) came out at 88 nM.

Take `Cc1csc(N2CCN3C(=O)N(c4c(F)cc(C#Cc5ccccc5)cc4F)C(=O)CC3(C)C2=O)n1` (racemic) [Example 54, (9aRS)-7-[2,6-difluoro-4-(2-phenylethynyl)phenyl]-9a-methyl-2-(4-methylthiazol-2-yl)-4,9-dihydro-3H-pyrazino[1,2-c]pyrimidine-1,6,8-trione]: the Emax was found to be 97% and the concentration for a half-maximal effect (EC50) was found to be 48 nM.

For the compound `CC12CC(=O)N(c3c(F)cc(C#Cc4ccccc4)cc3F)C(=O)N1CCN(c1nc(C#N)cs1)C2=O` (racemic) [Example 55, 2-[(9aRS)-7-[2,6-difluoro-4-(2-phenylethynyl)phenyl]-9a-methyl-1,6,8-trioxo-4,9-dihydro-3H-pyrazino[1,2-c]pyrimidin-2-yl]thiazole-4-carbonitrile], the Emax is 94% and the EC50 was 77 nM.

In the case of `CC12CC(=O)N(c3c(F)cc(C#Cc4ccccc4)cc3F)C(=O)N1CCN(c1nc(C(F)(F)F)cs1)C2=O` (racemic) [Example 56, (9aRS)-7-[2,6-difluoro-4-(2-phenylethynyl)phenyl]-9a-methyl-2-[4-(trifluoromethyl)thiazol-2-yl]-4,9-dihydro-3H-pyrazino[1,2-c]pyrimidine-1,6,8-trione], the Emax was 88% and the concentration giving a half-maximal response (EC50) came to 166 nM.

Take `CC12CC(=O)N(c3c(F)cc(C#Cc4ccccc4)cc3F)C(=O)N1CCN(c1ncc(C(F)(F)F)s1)C2=O` (racemic) [Example 57, (9aRS)-7-[2,6-difluoro-4-(2-phenylethynyl)phenyl]-9a-methyl-2-[5-(trifluoromethyl)thiazol-2-yl]-4,9-dihydro-3H-pyrazino[1,2-c]pyrimidine-1,6,8-trione]: the Emax was 103% and the EC50 was determined as 108 nM.

Take `Cn1cnc(N2CCN3C(=O)N(c4c(F)cc(C#Cc5ccccc5)cc4F)C(=O)CC3(C)C2=O)c1` (racemic) [Example 58, (9aRS)-7-[2,6-difluoro-4-(2-phenylethynyl)phenyl]-9a-methyl-2-(1-methylimidazol-4-yl)-4,9-dihydro-3H-pyrazino[1,2-c]pyrimidine-1,6,8-trione]: the Emax stood at 91% and the 50% effective concentration (EC50) turned out to be 214 nM.

In the case of `Cc1cn(C)c(N2CCN3C(=O)N(c4c(F)cc(C#Cc5ccccc5)cc4F)C(=O)CC3(C)C2=O)n1` (racemic) [Example 59, (9aRS)-7-[2,6-difluoro-4-(2-phenylethynyl)phenyl]-2-(1,4-dimethylimidazol-2-yl)-9a-methyl-4,9-dihydro-3H-pyrazino[1,2-c]pyrimidine-1,6,8-trione], the Emax was 107% and the EC50 amounted to 104 nM.

`Cc1nc(N2CCN3C(=O)N(c4c(F)cc(C#Cc5ccccc5)cc4F)C(=O)CC3(C)C2=O)cn1C` (racemic) [Example 60, (9aRS)-7-[2,6-difluoro-4-(2-phenylethynyl)phenyl]-2-(1,2-dimethylimidazol-4-yl)-9a-methyl-4,9-dihydro-3H-pyrazino[1,2-c]pyrimidine-1,6,8-trione]: the Emax amounted to 137% and the EC50 is 145 nM.

`Cn1ccc(N2CCN3C(=O)N(c4c(F)cc(C#Cc5ccccc5)cc4F)C(=O)CC3(C)C2=O)n1` (racemic) [Example 62, (9aRS)-7-[2,6-difluoro-4-(2-phenylethynyl)phenyl]-9a-methyl-2-(1-methylpyrazol-3-yl)-4,9-dihydro-3H-pyrazino[1,2-c]pyrimidine-1,6,8-trione]: the Emax was found to be 112% and the EC50 was 149 nM.

For `Cn1nccc1N1CCN2C(=O)N(c3c(F)cc(C#Cc4ccccc4)cc3F)C(=O)CC2(C)C1=O` (racemic) [Example 64, (9aRS)-7-[2,6-difluoro-4-(2-phenylethynyl)phenyl]-9a-methyl-2-(2-methylpyrazol-3-yl)-4,9-dihydro-3H-pyrazino[1,2-c]pyrimidine-1,6,8-trione], the Emax worked out at 155% and the EC50 amounted to 125 nM.

On to `Cc1cc(N2CCN3C(=O)N(c4c(F)cc(C#Cc5ccccc5)cc4F)C(=O)CC3(C)C2=O)n(C)n1` (racemic) [Example 66, (9aRS)-7-[2,6-difluoro-4-(2-phenylethynyl)phenyl]-2-(2,5-dimethylpyrazol-3-yl)-9a-methyl-4,9-dihydro-3H-pyrazino[1,2-c]pyrimidine-1,6,8-trione], for which the Emax is 142% and the 50% effective concentration (EC50) is 85 nM.

As for `Cn1cc(N2CCN3C(=O)N(c4c(F)cc(C#Cc5ccccc5)cc4F)C(=O)CC3(C)C2=O)cn1` (racemic) [Example 67, (9aRS)-7-[2,6-difluoro-4-(2-phenylethynyl)phenyl]-9a-methyl-2-(1-methylpyrazol-4-yl)-4,9-dihydro-3H-pyrazino[1,2-c]pyrimidine-1,6,8-trione], the Emax was 129% and the EC50 was 113 nM.
